Assay results taken from patent publication US20240270821A1, “GIP/GLP1/GCG TRI-RECEPTOR AGONISTS AND USES THEREOF” (priority 2023, published 2024).
pEC50: −log10 of the molar value. Read-outs that look alike come from different tables or passages of the source. Starred links: 1 amine or outer side, 2 acyl side, 3 side chain; linkers in the order of their positions; H or OH if unused. Non-standard residues stand in square brackets, D forms with d. Residues, ends and D or L forms follow the SMILES beside them. Groups on a side chain read outwards from the residue. No end group written: not given here. *: point of attachment. C20 diacid = O=C(O)CCCCCCCCCCCCCCCCCCC(=O)*; C18 diacid = O=C(O)CCCCCCCCCCCCCCCCC(=O)*; αMePhe(2-F) = C[C@](N)(Cc1ccccc1F)C(=O)O; γGlu = O=C(O)[C@H](CCC(=O)[*:2])N[*:1]; αMe4Pal = C[C@](N)(Cc1ccncc1)C(=O)O; αMeY = C[C@](N)(Cc1ccc(O)cc1)C(=O)O; Hyp = O=C(O)[C@@H]1C[C@@H](O)CN1; αMeF = C[C@](N)(Cc1ccccc1)C(=O)O; 4Pal = N[C@@H](Cc1ccncc1)C(=O)O; αMeL = CC(C)C[C@](C)(N)C(=O)O; αMeS = C[C@](N)(CO)C(=O)O; Orn = NCCC[C@H](N)C(=O)O; AEEA = NCCOCCOCC(=O)O; Aib = CC(C)(N)C(=O)O

What was measured:
Format in all cases: cell-based
hGLP-1R [1] = target: T1, hGLP-1R (Homo sapiens, UniProt P43220); test: Functional cAMP activation in the presence of 0.1% casein (no HSA); conditions: read-out: Relative cAMP EC50, hGLP-1R;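 also: intracellular cAMP rise after 30 min at 37 °C read by HTRF, normalized between buffer only (0%) and maximal control ligand (100%), four-parameter variable-slope fit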
human GcgR = human GcgR (Homo sapiens, UniProt P47871); test: Functional cAMP activity in the presence of 1% HSA; conditions: read-out: cAMP Rel EC50, hGcgR
hGIPR [2] = target: T2, hGIPR (Homo sapiens, UniProt P48546); test: Functional cAMP activation in the presence of 0.1% casein (no HSA); conditions: read-out: Relative cAMP EC50, hGIPR;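 also: intracellular cAMP rise after 30 min at 37 °C read by HTRF against a standard curve, scaled between buffer alone (0%) and top control ligand concentration (100%), four-parameter fit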
T2 sequence (P48546 22-466): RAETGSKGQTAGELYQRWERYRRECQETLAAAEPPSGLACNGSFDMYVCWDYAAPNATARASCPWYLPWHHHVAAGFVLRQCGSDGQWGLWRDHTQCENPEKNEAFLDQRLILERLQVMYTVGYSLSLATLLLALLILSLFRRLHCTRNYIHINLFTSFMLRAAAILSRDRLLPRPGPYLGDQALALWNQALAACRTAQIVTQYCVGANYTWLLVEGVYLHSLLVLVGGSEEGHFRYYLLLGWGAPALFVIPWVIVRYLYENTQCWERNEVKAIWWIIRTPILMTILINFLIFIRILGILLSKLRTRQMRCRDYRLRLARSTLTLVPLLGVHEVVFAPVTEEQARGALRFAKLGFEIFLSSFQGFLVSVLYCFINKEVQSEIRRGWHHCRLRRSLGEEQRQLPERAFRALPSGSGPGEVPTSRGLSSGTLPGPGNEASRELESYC

hGcgR = hGcgR (Homo sapiens, UniProt P47871); test: as above; conditions: read-out: Relative cAMP EC50, hGcgR;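 also: intracellular cAMP rise after 30 min at 37 °C, read by HTRF against a cAMP standard curve, scaled from buffer only (0%) to maximal control ligand response (100%)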
hGLP-1R [3] = target: T1, hGLP-1R; test: Functional cAMP activity in the presence of 1% HSA; conditions: read-out: cAMP Rel EC50, hGLP-1R
hGIPR [4] = target: T2, hGIPR; test: Functional cAMP activity in the presence of 1% HSA; conditions: read-out: cAMP Rel EC50, hGIPR
[5] = in the presence of 0.1% casein (no HSA), geometric mean
[6] = 0.1% casein, no HSA, geometric mean

T1 sequence (P43220 24-463): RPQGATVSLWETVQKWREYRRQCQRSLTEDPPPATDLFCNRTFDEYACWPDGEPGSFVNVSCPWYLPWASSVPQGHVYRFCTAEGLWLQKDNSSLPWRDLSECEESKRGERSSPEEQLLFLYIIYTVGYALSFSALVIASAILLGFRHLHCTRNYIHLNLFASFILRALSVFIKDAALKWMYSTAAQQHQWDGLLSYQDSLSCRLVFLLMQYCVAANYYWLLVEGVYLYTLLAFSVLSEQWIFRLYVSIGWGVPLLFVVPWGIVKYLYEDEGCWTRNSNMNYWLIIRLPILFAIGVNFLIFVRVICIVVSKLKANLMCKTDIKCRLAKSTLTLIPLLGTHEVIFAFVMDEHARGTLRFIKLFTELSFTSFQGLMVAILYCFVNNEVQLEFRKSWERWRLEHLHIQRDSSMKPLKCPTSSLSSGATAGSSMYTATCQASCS
hGcgR, sequence (P47871 26-477): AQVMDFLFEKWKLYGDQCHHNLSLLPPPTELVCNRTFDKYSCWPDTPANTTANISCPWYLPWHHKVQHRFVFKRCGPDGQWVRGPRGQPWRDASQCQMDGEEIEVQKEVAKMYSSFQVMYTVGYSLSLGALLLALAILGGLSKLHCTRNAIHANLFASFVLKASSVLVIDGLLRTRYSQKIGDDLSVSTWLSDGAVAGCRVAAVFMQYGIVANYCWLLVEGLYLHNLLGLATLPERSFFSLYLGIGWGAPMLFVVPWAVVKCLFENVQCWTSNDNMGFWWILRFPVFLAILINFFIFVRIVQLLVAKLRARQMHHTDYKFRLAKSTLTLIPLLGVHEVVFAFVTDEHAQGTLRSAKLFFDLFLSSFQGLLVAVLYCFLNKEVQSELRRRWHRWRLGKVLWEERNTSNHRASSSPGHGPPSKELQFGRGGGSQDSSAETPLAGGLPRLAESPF
human GcgR, sequence (P47871 26-477): as above

| pEC50 (hGLP-1R [1]) | pEC50 (human GcgR) | pEC50 (hGIPR [2]) | pEC50 (hGcgR) | pEC50 (hGLP-1R [3]) | pEC50 (hGIPR [4]) | pEC50 (hGLP-1R [1]; [6]) | pEC50 (hGIPR [2]; [6]) | pEC50 (hGcgR; [6]) | Compound | pEC50 (hGLP-1R [1]; [5]) | pEC50 (hGIPR [2]; [5]) | pEC50 (hGcgR; [5]) |
| --- | --- | --- | --- | --- | --- | --- | --- | --- | --- | --- | --- | --- |
| 9.43 | 6.79 | 11.00 | 8.73 | 7.55 | 9.19 | – | – | – | H-Y[Aib]QGT[αMePhe(2-F)]TSD[4Pal][αMeS]I[αMeL]LD[Orn]K([γGlu-γGlu-C18 diacid])AQ[αMe4Pal]EFI[dE][αMeY]LVEGGPSSGEPPPSGTGE-NH2 [Example 738] | – | – | – |
| 9.22 | 6.36 | 10.10 | 8.20 | 7.41 | 8.41 | – | – | – | H-Y[Aib]QGT[αMePhe(2-F)]TSD[4Pal][αMeS]I[αMeL]LD[Orn]K([γGlu-γGlu-C18 diacid])AQ[Aib][Orn]FI[dE][αMeY]LQEGGPSSGEPPPEGSEE-NH2 [Example 585] | – | – | – |
| – | 6.56 | – | – | 7.05 | 8.91 | – | – | – | H-Y[Aib]QGT[αMeF]TSD[4Pal][αMeS]I[αMeL]LD[Orn]K([AEEA-γGlu-C18 diacid])AQ[αMe4Pal]EFI[dE][αMeY]LIEGGPSSGEPPPSGSE-NH2 [Example 1167] | 9.20 | 10.96 | 8.67 |
| – | 6.20 | – | – | 7.02 | 7.92 | – | – | – | H-Y[Aib]QGTFTSD[4Pal]SQ[αMeL]LD[Orn]K([γGlu-γGlu-C18 diacid])AQ[αMe4Pal]AFIEYLIAGGPSSGEPPPSGS-NH2 [Example 1007] | 9.18 | 9.94 | 8.27 |
| 9.45 | 5.89 | 10.97 | 8.19 | 7.26 | 8.76 | – | – | – | CC[C@H](C)[C@H](NC(=O)[C@H](CCCN)NC(=O)[C@H](CC(=O)O)NC(=O)[C@H](CC(C)C)NC(=O)[C@](C)(CC(C)C)NC(=O)[C@@H](NC(=O)[C@](C)(CO)NC(=O)[C@H](Cc1ccncc1)NC(=O)[C@H](CC(=O)O)NC(=O)[C@H](CO)NC(=O)[C@@H](NC(=O)[C@](C)(Cc1ccccc1F)NC(=O)[C@@H](NC(=O)CNC(=O)[C@H](CCC(N)=O)NC(=O)C(C)(C)NC(=O)[C@@H](N)Cc1ccc(O)cc1)[C@@H](C)O)[C@@H](C)O)[C@@H](C)CC)C(=O)N[C@@H](C)C(=O)N[C@@H](CCC(N)=O)C(=O)NC(C)(C)C(=O)N[C@@H](CCCN)C(=O)N[C@@H](Cc1ccccc1)C(=O)N[C@H](C(=O)N[C@H](CCC(=O)O)C(=O)N[C@@](C)(Cc1ccc(O)cc1)C(=O)N[C@@H](CC(C)C)C(=O)N[C@H](C(=O)N[C@@H](CCCCNC(=O)COCCOCCNC(=O)CC[C@H](NC(=O)CCCCCCCCCCCCCCCCC(=O)O)C(=O)O)C(=O)NCC(=O)NCC(=O)N1CCC[C@H]1C(=O)N[C@@H](CO)C(=O)N[C@@H](CO)C(=O)NCC(=O)N[C@@H](CCC(=O)O)C(=O)N1CCC[C@H]1C(=O)N1CCC[C@H]1C(=O)N1CCC[C@H]1C(=O)N[C@@H](CCC(=O)O)C(N)=O)[C@@H](C)CC)[C@@H](C)CC [Example 444] (H-Y[Aib]QGT[αMePhe(2-F)]TSD[4Pal][αMeS]I[αMeL]LD[Orn]IAQ[Aib][Orn]FI[dE][αMeY]LIK([AEEA-γGlu-C18 diacid])GGPSSGEPPPE-NH2) | – | – | – |
| – | 6.74 | – | – | 7.46 | 9.35 | 9.58 | 11.27 | 8.78 | H-Y[Aib]QGT[αMePhe(2-F)]TSD[4Pal][αMeS]I[αMeL]LD[Orn]K([γGlu-γGlu-C18 diacid])AQ[αMe4Pal]EFI[dE][αMeY]LIEGGPPS[Aib][Orn]PPP[Orn]GS-NH2 [Example 1226] | – | – | – |
| 9.51 | 6.80 | 11.09 | 8.66 | 7.73 | 9.30 | – | – | – | H-Y[Aib]QGT[αMePhe(2-F)]TSD[4Pal]SI[αMeL]LD[Orn]K([γGlu-γGlu-C18 diacid])AQ[αMe4Pal][Orn]FI[dE][αMeY]LIEGGPSSGEPPPESE-NH2 [Example 685] | – | – | – |
| – | 6.33 | – | – | 7.12 | 8.06 | – | – | – | H-Y[Aib]QGTFTSD[4Pal]SQ[αMeL]LD[Orn]K([AEEA-γGlu-C18 diacid])AQ[αMe4Pal]AFIE[αMeY]LIA[Aib]GPSSGEPPPSGSEE-NH2 [Example 1099] | 9.14 | 10.12 | 8.46 |
| 8.89 | 5.75 | 9.86 | 8.14 | 6.60 | 7.52 | – | – | – | H-Y[Aib]QGT[αMePhe(2-F)]TSD[4Pal][αMeS]I[αMeL]LD[Orn]K([γGlu-Glu-C18 diacid])AQ[Aib][Orn]FI[dE][αMeY]LSEGGPSSGEPPPSGTEE-NH2 [Example 566] | – | – | – |

More lines, now with the values behind:

| Compound | pEC50 (hGLP-1R [1]) | pEC50 (human GcgR) | pEC50 (hGIPR [2]) | pEC50 (hGcgR) | pEC50 (hGLP-1R [3]) | pEC50 (hGIPR [4]) | pEC50 (hGLP-1R [1]; [6]) | pEC50 (hGIPR [2]; [6]) | pEC50 (hGcgR; [6]) | pEC50 (hGLP-1R [1]; [5]) | pEC50 (hGIPR [2]; [5]) | pEC50 (hGcgR; [5]) |
| --- | --- | --- | --- | --- | --- | --- | --- | --- | --- | --- | --- | --- |
| Y[Aib]QGTFTSD[4Pal]S[Orn][αMeL]LDKK([γGlu-γGlu-C18 diacid])AQ[Aib]AFIE[αMeY]LLEGGPSSGAPPPSGSEE-NH2 [Example 944] | – | 5.74 | – | – | 6.01 | 7.43 | – | – | – | 8.31 | 9.67 | 8.21 |
| H-Y[Aib]QGT[αMePhe(2-F)]TSD[4Pal][αMeS]I[αMeL]LD[Orn]K([AEEA-γGlu-C18 diacid])AQ[αMe4Pal]EFI[dE][αMeY]LIEGGPSSGAPPPSGE-NH2 [Example 1140] | – | 6.64 | – | – | 7.41 | 9.06 | – | – | – | 9.49 | 11.09 | 8.81 |
| H-Y[Aib]QGT[αMePhe(2-F)]TSD[4Pal]SILLD[Orn]K([γGlu-γGlu-C18 diacid])AQ[Aib]AFIEYLQEGGPSSGAPPPSGTEE-NH2 [Example 581] | 9.39 | 5.82 | 10.09 | 8.09 | 7.18 | 8.14 | – | – | – | – | – | – |
| H-Y[Aib]QGTFTSDFSK[αMeL]LDKK([AEEA-γGlu-C20 diacid])AQ[Aib]AFIEWLIEGGPSSGAPPPSEG-NH2 [Example 40] | – | 5.56 | – | – | 6.86 | 7.12 | – | – | – | 9.16 | 9.86 | 7.91 |
| Y[Aib]QGTFTSDFS[Orn][αMeL]LDKK([AEEA-γGlu-C18 diacid])AQ[Aib]AFIEWLLEGGHSSGEPPPSGE-NH2 [Example 124] | – | 6.25 | – | – | 6.10 | 7.26 | – | – | – | 8.21 | 9.46 | 8.53 |
| H-Y[Aib]QGTFTSD[4Pal]S[Orn][αMeL]LD[Orn]K([Glu-γGlu-C18 diacid])AQ[Aib]AFIE[αMeY]LLEGGPSSGAPPPSGSEE-NH2 [Example 1066] | – | 5.37 | – | – | 5.73 | 7.16 | – | – | – | 8.01 | 9.35 | 7.60 |
| H-Y[Aib]QGTFTSD[4Pal]SQ[αMeL]LD[Orn]K([dE-γGlu-C18 diacid])AQ[αMe4Pal]AFIE[αMeY]LLAGGPSSGAPPPSGSEEE-NH2 [Example 1082] | – | 5.82 | – | – | 6.17 | 7.91 | – | – | – | 8.38 | 10.00 | 7.91 |
| Y[Aib]QGTFTSD[4Pal]SQ[αMeL]LDKK([γGlu-γGlu-C18 diacid])AQ[αMe4Pal]AFIE[αMe4Pal]LIE[Aib]GPSSGAPPPSGTE-NH2 [Example 1118] | – | 6.10 | – | – | 6.74 | 8.26 | – | – | – | 8.27 | 9.89 | 8.19 |
| H-Y[Aib]QGTFTSD[4Pal]SQ[αMeL]LDKK([AEEA-γGlu-C18 diacid])AQ[αMe4Pal]AFIEYLIE[Aib]GPSSGAPPPSG[4Pal]-NH2 [Example 835] | – | 6.25 | – | – | 6.56 | 7.77 | – | – | – | 8.55 | 9.42 | 8.42 |
| H-Y[Aib]QGTFTSDFS[Orn][αMeL]LDKK([AEEA-γGlu-C18 diacid])AQ[Aib]AFIEWLLEGGPSSGAPPPEGE-NH2 [Example 120] | – | 5.81 | – | – | 6.18 | 7.48 | – | – | – | 8.32 | 9.36 | 8.23 |
| H-Y[Aib]QGTFTSDFS[Orn][αMeL]LDKK([AEEA-AEEA-γGlu-C18 diacid])AQ[Aib]AFIEWLLEGGHSSGAPPPGGE-NH2 [Example 271] | – | 5.57 | – | – | 6.05 | 7.80 | – | – | – | 8.30 | 9.82 | 8.07 |
| H-Y[Aib]QGTFTSDFS[Orn][αMeL]LDKK([AEEA-γGlu-C18 diacid])AQ[Aib]AFIEYLLEGGPSSGAP[Hyp]PGGS-NH2 [Example 236] | – | 6.51 | – | – | 6.58 | 7.61 | – | – | – | 8.48 | 9.51 | 8.65 |
| H-Y[Aib]QGTFTSDYSI[αMeL]LDKQAAK([AEEA-AEEA-γGlu-C20 diacid])QFVEWLIA[Aib]GPSSGEPPPSEG-NH2 [Example 326] | – | 5.82 | – | – | 6.76 | 7.08 | – | – | – | 9.26 | 9.52 | 8.27 |
